Assay results taken from ChEMBL document CHEMBL3217527, “The Synthesis and Evaluation of Dihydroquinazolin-4-ones and Quinazolin-4-ones as Thyroid Stimulating Hormone Receptor Agonists” (Medchemcomm, 2011).

Assays:
[1] = target: T1, Thyrotropin receptor (Homo sapiens, UniProt P16473); assay: Agonist activity at TSHR (unknown origin) transiently transfected HEK-EM293 cells assessed as cAMP level after 1 hr by ELISA; type: functional, cell-based
[2] = Half life in acidic aqueous conditions at pH 2; type: physicochemical; conditions: acidic aqueous solution
[3] = target: T1, Thyrotropin receptor; assay: Agonist activity at TSHR (unknown origin)
[4] = target: Lutropin-choriogonadotropic hormone receptor (Homo sapiens, UniProt P22888); assay: Agonist activity at LHCGR (unknown origin)
Chain of Lutropin-choriogonadotropic hormone receptor (P22888 whole entry): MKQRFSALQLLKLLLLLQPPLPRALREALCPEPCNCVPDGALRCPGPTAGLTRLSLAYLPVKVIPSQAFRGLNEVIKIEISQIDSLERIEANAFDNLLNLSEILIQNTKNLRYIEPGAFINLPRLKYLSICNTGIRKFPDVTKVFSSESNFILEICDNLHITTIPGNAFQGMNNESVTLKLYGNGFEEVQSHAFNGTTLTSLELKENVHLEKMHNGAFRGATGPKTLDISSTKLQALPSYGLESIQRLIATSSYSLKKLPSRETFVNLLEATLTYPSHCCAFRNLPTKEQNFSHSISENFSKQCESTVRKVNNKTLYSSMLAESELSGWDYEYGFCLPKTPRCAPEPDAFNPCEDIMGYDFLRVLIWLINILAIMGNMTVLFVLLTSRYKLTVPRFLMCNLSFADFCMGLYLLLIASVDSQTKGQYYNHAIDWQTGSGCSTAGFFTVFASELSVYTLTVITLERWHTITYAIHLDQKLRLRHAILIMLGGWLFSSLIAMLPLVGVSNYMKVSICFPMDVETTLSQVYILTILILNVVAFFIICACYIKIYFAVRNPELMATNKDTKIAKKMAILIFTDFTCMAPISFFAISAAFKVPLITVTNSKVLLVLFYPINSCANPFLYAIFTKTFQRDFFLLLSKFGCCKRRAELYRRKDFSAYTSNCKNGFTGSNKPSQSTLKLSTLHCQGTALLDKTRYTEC

T1 sequence (P16473 whole entry): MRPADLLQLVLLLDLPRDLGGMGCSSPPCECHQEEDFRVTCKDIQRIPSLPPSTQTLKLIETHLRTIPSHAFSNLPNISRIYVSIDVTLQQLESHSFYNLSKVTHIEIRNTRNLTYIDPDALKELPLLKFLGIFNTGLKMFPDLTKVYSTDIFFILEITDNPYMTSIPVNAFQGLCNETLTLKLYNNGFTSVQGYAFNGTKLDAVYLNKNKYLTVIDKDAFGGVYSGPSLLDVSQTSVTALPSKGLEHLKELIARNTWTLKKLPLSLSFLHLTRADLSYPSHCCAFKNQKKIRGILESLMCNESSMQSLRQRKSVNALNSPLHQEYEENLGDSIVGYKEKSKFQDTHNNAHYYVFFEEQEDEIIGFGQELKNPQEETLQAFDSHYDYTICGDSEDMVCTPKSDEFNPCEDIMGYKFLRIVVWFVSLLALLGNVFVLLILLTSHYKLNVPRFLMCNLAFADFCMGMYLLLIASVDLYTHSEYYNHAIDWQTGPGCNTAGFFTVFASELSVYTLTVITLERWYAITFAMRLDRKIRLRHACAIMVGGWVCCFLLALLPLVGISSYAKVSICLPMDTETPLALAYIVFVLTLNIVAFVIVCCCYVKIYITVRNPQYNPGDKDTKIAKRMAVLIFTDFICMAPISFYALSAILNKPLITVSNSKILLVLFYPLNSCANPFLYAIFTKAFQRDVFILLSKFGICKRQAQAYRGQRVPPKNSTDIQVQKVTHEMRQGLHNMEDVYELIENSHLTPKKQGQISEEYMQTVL

SMILES	EC50 [1] [nM]	other results
CCCCN1C(=O)c2ccccc2NC1c1ccc(OC)c(COc2ccc(NC(C)=O)cc2)c1 (configuration not stated)	830	–
COc1ccc(C2Nc3ccccc3C(=O)N2Cc2ccccc2)cc1COc1ccc(NC(C)=O)cc1 (configuration not stated)	290	–
COc1ccc(C2Nc3cccc(OC)c3C(=O)N2Cc2ccccc2)cc1COc1ccc(NC(C)=O)cc1 (configuration not stated)	4480	–
COc1ccc(OCc2cc(C3Nc4ccccc4C(=O)N3Cc3ccccc3)ccc2OC)cc1 (configuration not stated)	2160	–
COc1ccc(C2Nc3ccccc3C(=O)N2Cc2ccncc2)cc1COc1ccc(NC(C)=O)cc1 (configuration not stated)	3980	–
COc1ccc(C2Nc3ccccc3C(=O)N2c2ccccc2)cc1COc1ccc(NC(C)=O)cc1 (configuration not stated)	5090	–
COc1ccc(C2Nc3ccc(O)cc3C(=O)N2Cc2ccccc2)cc1COc1ccc(NC(C)=O)cc1 (configuration not stated)	330	–
COc1ccc(-c2nc3cccc(O)c3c(=O)n2Cc2ccccc2)cc1COc1ccc(NC(C)=O)cc1	550	–
CC(=O)Nc1ccc(OCc2cccc(C3Nc4ccccc4C(=O)N3Cc3ccccc3)c2)cc1 (configuration not stated)	1860	–
COc1ccc(C2Nc3ccccc3C(=O)N2Cc2ccccc2)cc1COc1ccccc1 (configuration not stated)	2570	–
COc1cccc(-c2nc(SC)nc3sc(C(=O)NC(C)(C)C)c(N)c23)c1	–	EC50 [3]: 7700 nM; EC50 [4]: 220 nM

Continued, in another order:

EC50 [1] [nM]	SMILES	other results
1160	COc1ccc(C2Nc3ccccc3C(=O)N2Cc2ccco2)cc1COc1ccc(NC(C)=O)cc1 (configuration not stated)	–
960	COc1ccc(-c2nc3ccccc3c(=O)n2Cc2ccccc2)cc1COc1ccc(NC(C)=O)cc1	–
930	COc1ccc(-c2nc3ccccc3c(=O)n2Cc2ccco2)cc1COc1ccc(NC(C)=O)cc1	–
90	COc1ccc(C2Nc3cccc(O)c3C(=O)N2Cc2ccccc2)cc1COc1ccc(NC(C)=O)cc1 (configuration not stated)	half-life [2]: 3 h
430	COc1ccc(C2Nc3ccccc3C(=O)N2CCc2ccccc2)cc1COc1ccc(NC(C)=O)cc1 (configuration not stated)	–
4340	COc1ccc(C2Nc3ccccc3C(=O)N2Cc2ccccc2)cc1COc1cccc(NC(C)=O)c1 (configuration not stated)	–
280	COc1ccc(C2Nc3cccc(F)c3C(=O)N2Cc2ccccc2)cc1COc1ccc(NC(C)=O)cc1 (configuration not stated)	–
18	COc1ccc(C2Nc3cccc(O)c3C(=O)N2Cc2ccccc2)cc1CSc1ccc(NC(C)=O)cc1 (configuration not stated)	–
80	COc1ccc(C2Nc3ccccc3C(=O)N2Cc2ccccc2)cc1CSc1ccc(NC(C)=O)cc1 (configuration not stated)	–
